# Results: patent EP0603240B1, “SAFENING HERBICIDAL PYRAZOLYLSULFONYLUREAS” (priority 1991, dated 1993)
# What was measured:
# Format in all cases: in vivo
# [1] = tested on: corn; assay: Example 8, Procedure II: Herbicide No. 1 + butachlor (No. 9) with antidotes
# Procedure: (§1) Containers were filled and compacted with a fumigated silt loam top soil to a depth of about 1.3 cm from the top of the container. A first container was designated as an untreated control, a second container was designated as a herbicide control, and a third container was designated as a herbicide + antidote test container. Each of the containers was seeded with a crop species. A measured amount of herbicide dispersed or dissolved in acetone was applied to a measured quantity of soil. To this same quantity of soil treated with herbicide, there was added a measured amount of antidote dispersed or dissolved in acetone. The quantity of soil treated with the herbicide and antidote was thoroughly mixed to incorporate the herbicide and antidote in the soil uniformly. The seed bed in the third container of soil was covered with the soil treated with the herbicide and antidote and the container was leveled. For each test series, the seed beds of the first and second containers were likewise covered by soil layers. the cover layer of the first container was not treated with herbicide or antidote.
# (§2) The containers were then placed on a bench in a greenhouse and sub-irrigated as required for the duration of the test. […] Plant response is measured in terms of percent injury. Antidote efficacy is indicated as the difference in plant injury by the herbicide(s) without the antidote and with the antidote.
# (§3) This procedure is the same as Procedure I, but modified in the manner that after incorporation of the chemicals (herbicide and antidote) the containers with the covered seedbed were treated with an initial overhead irrigation equivalent to 0.6 cm rainfall, then subsequently sub-irrigated as required on greenhouse benches.
# In this test, the efficacy of the same five antidotes used in Examples 6 and 7 was investigated in compositions comprising Herbicide No. 1 and as a co-herbicide, butachlor (Herbicide No. 9), active ingredient in MACHETE® herbicide, a leading commercial rice herbicide. The test procedure used in this example was the same as that in Examples 6 and 7.
# [2] = tested on: velvetleaf (Abutilon theophrasti); assay: Example 22: retest of Example 21 at reduced greenhouse temperatures; details: Table 22
# Procedure: as §1, §2, §3
# (§4) In the series of greenhouse tests described below, for routine screening purposes the herbicide/antidote compositions were tested in crop/weed combinations involving corn as the crop and either or both of the weeds barnyardgrass (Echinochloa crusgalli), a monocotyledonous weed, and velvetleaf (Abutilon theophrasti), a dicotyledonous weed. In the tables below, these weeds are indicated by the symbols "BYG" and "VL", respectively.
# (§5) In this example, tests were conducted as in the preceding Examples 18-20, except here the co-herbicidal component was SUTAN® PLUS, a commercial product comprising as the active herbicidal ingredient the compound butylate (Herbicide No. 10) and an antidote […] (Antidote No. 1). Again, the antidotal compounds herein were Nos. 1, 2, 7, 13 and 15. Procedure II was used.
# (§6) The experiments in this example were designed as a retest of those described in Example 21 in view of the uncharacteristically poor corn safety and weed control, believed to have resulted from unseasonably high temperatures in the greenhouse. Accordingly, temperatures were reduced for these tests.
# [3] = tested on: barnyardgrass (Echinochloa crusgalli); assay: as above; details: Table 22
# Procedure: as §1, §2, §3, §4, §5, §6
# [4] = tested on: velvetleaf (Abutilon theophrasti); assay: Example 11, Procedure II: Herbicide No. 1 + metazachlor (No. 14) with antidotes
# Procedure: as §1, §2, §3, §4
# (§7) In this example, yet another α-chloroacetanilide co-herbicide, metazachlor (Herbicide No. 14) was combined with Herbicide No. 1 for investigation of the effect of various safeners on that composition. Metazachlor is the active ingredient in the commercial herbicide BUTISAN® S, used here as a 500 g/L formulation.
# [5] = tested on: barnyardgrass (Echinochloa crusgalli); assay: as above
# Procedure: as §1, §2, §3, §4, §7
# [6] = tested on: velvetleaf (Abutilon theophrasti); assay: Example 6, Procedure II: Herbicide No. 1 + alachlor (No. 7) with antidotes
# Procedure: as §1, §2, §3, §4
# (§8) This example was designed to investigate the antidotal efficacy of a plurality of antidotal compounds against a composition comprising Herbicide No. 1 in combination with Herbicide No. 7 (alachlor). The antidotal compounds used herein were Nos. 1, 2, 7, 13 and 15.
# (§9) In this example, Procedure II described above was followed. The data from the tests in this example is shown in Table 6 and represents averages of duplicate replications.
# [7] = tested on: barnyardgrass (Echinochloa crusgalli); assay: as above
# Procedure: as §1, §2, §3, §4, §8, §9
# [8] = tested on: corn; assay: Example 21, Procedure II: Herbicide No. 1 + SUTAN PLUS (butylate + antidote) with antidotes
# Procedure: as §1, §2, §3, §5
# [9] = tested on: velvetleaf (Abutilon theophrasti); assay: Example 19, Procedure II: Herbicide No. 1 + ERADICANE EXTRA with added antidotes
# Procedure: as §1, §2, §3, §4
# (§10) In the test reported in this example, the herbicidal composition was similar to that used in Example 16 in that Herbicide No. 1 was combined with EPTC (Herbicide No. 4) as a co-herbicide and the antidotes included Nos. 1, 2, 7, 13 and 15. However, in this test the EPTC was introduced as a formulation of ERADICANE (EPTC + the antidote R-25788, i.e., Antidote No. 1) at an application rate of 8.96 kg/ha. Thus, in this test two antidotes were present, viz. R-25788 and one of the auxilliary antidotes, No. 2, 13 and 15.
# (§11) The test reported in this example was performed in the same manner and with the same antidotes used in Example 18, the only difference being the substitution of the commercial herbicidal product ERADICANE® EXTRA for ERADICANE®. ERADICANE EXTRA is a formulation containing both an antidote, i.e., R-29148 (Antidote No. 5 herein), and an extender, dietholate.
# [10] = tested on: barnyardgrass (Echinochloa crusgalli); assay: as above
# Procedure: as §1, §2, §3, §4, §10, §11
# [11] = Herbicide No.1 0.56 Kg/ha + SUTAN + 8.96 Kg/ha, no added antidote
# [12] = Herbicide No.1 0.56 Kg/ha alone
# [13] = Herbicide No.1 1.12 Kg/ha + SUTAN + 8.96 Kg/ha, no added antidote
# [14] = Herbicide No.1 1.12 Kg/ha alone
# [15] = Herbicide No.1 0.56 kg/ha alone, no antidote
# [16] = Herbicide No.1 1.12 kg/ha alone, no antidote
# [17] = Herbicide No.1 0.14 kg/ha alone
# [18] = Herbicide No.1 0.56 kg/ha alone
# [19] = Herbicide No.1 0.14 + No.7 4.48 kg/ha, no antidote
# [20] = Herbicide No.1 0.56 + No.7 (alachlor) 4.48 kg/ha, no antidote, average of duplicates
# [21] = Herbicide No.1 1.12 kg/ha alone
# [22] = Herbicide No.1 0.56 kg/ha + ERADICANE EXTRA 8.96 kg/ha, no added antidote
# [23] = Herbicide No.1 1.12 kg/ha + ERADICANE EXTRA 8.96 kg/ha, no added antidote
# [24] = Herbicide No.1 0.56 Kg/ha + SUTAN + 8.96 Kg/ha + antidote 2.24 Kg/ha
# [25] = Herbicide No.1 0.56 Kg/ha + SUTAN + 8.96 Kg/ha + antidote 8.96 Kg/ha
# [26] = Herbicide No.1 1.12 Kg/ha + SUTAN + 8.96 Kg/ha + antidote 2.24 Kg/ha
# [27] = Herbicide No.1 1.12 Kg/ha + SUTAN + 8.96 Kg/ha + antidote 8.96 Kg/ha
# [28] = Herbicide No.1 0.56 kg/ha + Herbicide No.14 3.36 kg/ha, antidote rate 2.24 kg/ha
# [29] = Herbicide No.1 0.56 kg/ha + Herbicide No.14 3.36 kg/ha, antidote rate 8.96 kg/ha
# [30] = Herbicide No.1 1.12 kg/ha + Herbicide No.14 3.36 kg/ha, antidote rate 2.24 kg/ha
# [31] = Herbicide No.1 1.12 kg/ha + Herbicide No.14 3.36 kg/ha, antidote rate 8.96 kg/ha
# [32] = Herbicide No.1 0.14 + No.7 4.48 kg/ha + antidote 2.24 kg/ha
# [33] = Herbicide No.1 0.14 + No.7 4.48 kg/ha + antidote 8.96 kg/ha
# [34] = Herbicide No.1 0.56 + No.7 4.48 kg/ha + antidote 2.24 kg/ha
# [35] = Herbicide No.1 0.56 + No.7 4.48 kg/ha + antidote 8.96 kg/ha
# [36] = Herbicide No.1 0.56 kg/ha + ERADICANE EXTRA 8.96 kg/ha, antidote 2.24 kg/ha
# [37] = Herbicide No.1 0.56 kg/ha + ERADICANE EXTRA 8.96 kg/ha, antidote 8.96 kg/ha
# [38] = Herbicide No.1 1.12 kg/ha + ERADICANE EXTRA 8.96 kg/ha, antidote 2.24 kg/ha
# [39] = Herbicide No.1 1.12 kg/ha + ERADICANE EXTRA 8.96 kg/ha, antidote 8.96 kg/ha
smiles,measurement,setting,value
"CC1(C)OC(c2ccco2)CN1C(=O)C(Cl)Cl (centres unmarked) [Antidote No. 15, Oxazolidine, 3-(dichloroacetyl)-5-(2-furanyl)-2,2-dimethyl]","safening of corn, assessment in words","[1]; Herbicide Nos. 1 and 9, Table 8",best safening effect across all four treatments
COC(=O)c1c(Cl)nn(C)c1S(=O)(=O)NC(=O)Nc1nc(OC)cc(OC)n1 [Herbicide No. 1],% Injury VL,[2]; [11],80%
same,% Injury VL,[2]; [12],65%
same,% Injury VL,[2]; [13],85%
same,% Injury VL,[2]; [14],80%
same,% Injury BYG,[3]; [11],93%
same,% Injury BYG,[3]; [12],55%
same,% Injury BYG,[3]; [13],93%
same,% Injury BYG,[3]; [14],70%
same,% Injury VL,[4]; [15],75%
same,% Injury VL,[4]; [16],80%
same,% Injury BYG,[5]; [15],75%
same,% Injury BYG,[5]; [16],80%
same,% Injury Corn,"[1]; Herbicide No.1 0.14 + No.9 2.24 kg/ha, no antidote",25%
same,% Injury Corn,[1]; [17],10%
same,% Injury Corn,"[1]; Herbicide No.1 0.56 + No.9 (butachlor) 2.24 kg/ha, no antidote",65%
same,% Injury Corn,[1]; [18],60%
same,% Injury VL,[6]; [19],70%
same,% Injury VL,[6]; [17],40%
same,% Injury VL,[6]; [20],85%
same,% Injury VL,[6]; [18],60%
same,% Injury BYG,[7]; [19],100%
same,% Injury BYG,[7]; [17],20%
same,% Injury BYG,[7]; [20],100%
same,% Injury BYG,[7]; [18],70%
COC(=O)c1c(Cl)nn(C)c1S(=O)(=O)NC(=O)Nc1nc(OC)cc(OC)n1 [No.1],% Injury Corn,"[8]; Herbicide No.1 0.56 kg/ha + SUTAN + 8.96 kg/ha, no added antidote",10%
same,% Injury Corn,[8]; [18],0%
same,% Injury Corn,"[8]; Herbicide No.1 1.12 kg/ha + SUTAN + 8.96 kg/ha, no added antidote",5%
same,% Injury Corn,[8]; [21],30%
same,% Injury VL,[9]; [22],80%
same,% Injury VL,[9]; [18],50%
same,% Injury VL,[9]; [23],85%
same,% Injury VL,[9]; [21],65%
same,% Injury BYG,[10]; [22],95%
same,% Injury BYG,[10]; [18],30%
same,% Injury BYG,[10]; [23],95%
same,% Injury BYG,[10]; [21],70%
C=CCN(CC=C)C(=O)C(Cl)Cl [compound 1],% Injury VL,[2]; [24],80%
same,% Injury VL,[2]; [25],80%
same,% Injury VL,[2]; [26],80%
same,% Injury VL,[2]; [27],80%
same,% Injury BYG,[3]; [24],93%
same,% Injury BYG,[3]; [25],90%
same,% Injury BYG,[3]; [26],85%
same,% Injury BYG,[3]; [27],90%
same,% Injury Corn,"[8]; Herbicide No.1 0.56 kg/ha + SUTAN + 8.96 kg/ha, antidote 2.24 kg/ha",15%
same,% Injury Corn,"[8]; Herbicide No.1 0.56 kg/ha + SUTAN + 8.96 kg/ha, antidote 8.96 kg/ha",15%
same,% Injury Corn,"[8]; Herbicide No.1 1.12 kg/ha + SUTAN + 8.96 kg/ha, antidote 2.24 kg/ha",30%
same,% Injury Corn,"[8]; Herbicide No.1 1.12 kg/ha + SUTAN + 8.96 kg/ha, antidote 8.96 kg/ha",20%
same,% Injury VL,[4]; [28],80%
same,% Injury VL,[4]; [29],90%
same,% Injury VL,[4]; [30],85%
same,% Injury VL,[4]; [31],80%
same,% Injury BYG,[5]; [28],99%
same,% Injury BYG,[5]; [29],100%
same,% Injury BYG,[5]; [30],99%
same,% Injury BYG,[5]; [31],100%
same,% Injury Corn,[1]; Herbicide No.1 0.14 + No.9 2.24 kg/ha + antidote 2.24 kg/ha,20%
same,% Injury Corn,[1]; Herbicide No.1 0.14 + No.9 2.24 kg/ha + antidote 8.96 kg/ha,10%
same,% Injury Corn,[1]; Herbicide No.1 0.56 + No.9 2.24 kg/ha + antidote 2.24 kg/ha,20%
same,% Injury Corn,[1]; Herbicide No.1 0.56 + No.9 2.24 kg/ha + antidote 8.96 kg/ha,15%
same,% Injury VL,[6]; [32],75%
same,% Injury VL,[6]; [33],80%
same,% Injury VL,[6]; [34],80%
same,% Injury VL,[6]; [35],85%
same,% Injury BYG,[7]; [32],100%
same,% Injury BYG,[7]; [33],100%
same,% Injury BYG,[7]; [34],100%
same,% Injury BYG,[7]; [35],100%
same,% Injury VL,[9]; [36],70%
same,% Injury VL,[9]; [37],75%
same,% Injury VL,[9]; [38],70%
same,% Injury VL,[9]; [39],85%
same,% Injury BYG,[10]; [36],90%
same,% Injury BYG,[10]; [37],90%
same,% Injury BYG,[10]; [38],90%
same,% Injury BYG,[10]; [39],95%
